Results reported in US7750028B2, “Crystal modifications of 1-(2,6-difluorobenzyl)-1H-1, 2,3-triazole-4-carboxamide” (Novartis AG, priority 1997, dated 2010).

How the values were obtained:
Type in all cases: physicochemical
[1] = dissolution rate in water; conditions: comparison between modifications
[2] = thermodynamic investigations (thermomicroscopy, X-ray powder diffractometry, DSC, solubility tests) of crystal modifications; conditions: for thermodynamic stability: comparison of the crystal modifications A/A′, B and C
From the text: The modification A or A′ has significant advantages compared with the modification B and compared with the modification C.

[3] = dissolution rate in gastric fluid; conditions: comparison between modifications

| Structure (SMILES) | dissolution rate [1] | thermodynamic stability [2] | dissolution rate [3] | thermodynamic stability ([2]; listed as A′) | conversion of the crystals into modification B ([2]; at as low as room temperature) | thermodynamic stability ([2]; listed as Modification C) | conversion into other modifications ([2]; depending on experimental conditions) |
| --- | --- | --- | --- | --- | --- | --- | --- |
| NC(=O)c1cn(Cc2c(F)cccc2F)nn1 [modification A, 1-(2,6-difluorobenzyl)-1H-1,2,3-triazole-4-carboxamide] | slower dissolution rate | substantially better thermodynamic stability than the modifications B and C | slower dissolution rate | – | – | – | – |
| NC(=O)c1cn(Cc2c(F)cccc2F)nn1 [modification A′, 1-(2,6-difluorobenzyl)-1H-1,2,3-triazole-4-carboxamide] | slower dissolution rate | – | slower dissolution rate | substantially better thermodynamic stability than the modifications B and C | – | – | – |
| NC(=O)c1cn(Cc2c(F)cccc2F)nn1 [modification B, 1-(2,6-difluorobenzyl)-1H-1,2,3-triazole-4-carboxamide] | substantially faster dissolution rate | – | substantially faster dissolution rate | – | – | – | – |
| NC(=O)c1cn(Cc2c(F)cccc2F)nn1 [modification C, 1-(2,6-difluorobenzyl)-1H-1,2,3-triazole-4-carboxamide] | – | – | – | – | within a few weeks | the least stable of the three modifications | converted either into the modification A or A′ or into the modification B |
